Measurements from patent US20240115527A1, “CXCR1/CXCR2 INHIBITORS FOR USE IN TREATING MYELOFIBROSIS” (Icahn School of Medicine at Mount Sinai, priority 2020, published 2024).

Legend:
[1] = test system: MF CD34+ cells co-cultured with splenic EC; assay: Proliferation of MF CD34+ cells co-cultured with LCN2 treated splenic endothelial cells; assay type: cell-based, human; conditions: reparixin added to co-culture, FIG. 4B
Source text: FIGS. 4A and 4B illustrate that addition of a CXCR1/CXCR2 inhibitor reverses effects of IL-8 on MF CD34^+ cells proliferation and lineage differentiation. FIG. 4A illustrates that IL-8 decreased the fraction of normal CD34^+, CD41^+, and CD33^+ cells, but increased the fraction of MF CD34^+, CD41^+, and CD33^+ cells. The effects of IL-8 were eliminated by the addition of the CXCR1/CXCR2 inhibitor ladarixin (Ladx). Normal CD34/CD41/CD33: left bars. MF CD34/CD41/CD33: Right bars. FIG. 4B illustrates that splenic endothelial cells (ECs) promote the proliferation of hematopoietic CD34^+ cells. Shown is fold change in CD34^+ cells cultured alone in the absence of cytokines and that the numbers are increased when the CD34^+ cells were co-cultured with LCN2 treated endothelial cells. The effects of co-cultivation with ECs were eliminated by addition of the CXCR1/CXCR2 antagonist reparixin (RPX).
Similarly, while treatment with LCN2 enhances endothelial cell (EC)-mediated proliferation of MF cells, treatment with the CXCR1/CXCR2 inhibitor reparixin decreased MF CD34^+ proliferation when co-cultured with splenic EC (FIG. 4B).

[2] = test system: MF CD34+ cells; assay: Colony forming assay (CFU-GM) of cultured MF CD34+ cells with IL-8; assay type: cell-based, human; conditions: co-treatment with reparixin, FIG. 5A
Source text: FIGS. 5A, 5B. 5C, 5D, and 5E illustrate that a CXCR1/CXCR2 inhibitor reverses effects of IL-8 on MF CD34^+ cell colony formation. […] CFU-GM=colony-forming unit-granulocyte-macrophage. FIGS. 5B and 5C illustrate that IL-8 increased CFU-GM colony formation by MF CD34^+ cells in a dose dependent fashion and that the effects of IL-8 were inhibited by treatment with Ladx. FIG. 5B. Normal cells. FIG. 5C. MF cells. […] Con=control. IL-8 concentrations increase from left to right. […] P values were as follows: w/o Ladx: Con vs IL-8—10 ng: 0.159332; Con vs IL-8—20 ng: 0.011976; Con vs IL-8—50 ng: 0.00262; Con vs IL-8—100 ng: 0.00042; w/ 10 μM Ladx: Con vs Ladx: 0.315782; IL-8—10 ng vs plus Ladx: 0.295851; IL-8—20 ng vs plus Ladx: 0.077726; IL-8—50 ng vs plus Ladx: 0.031355; IL-8—100 ng vs plus Ladx: 0.081595.

CC(C)Cc1ccc([C@@H](C)C(=O)NS(C)(=O)=O)cc1 [reparixin, R-(-)-2-(4-isobutylphenyl)-N-methanesulfonyl propionamide]
MF CD34+ proliferation when co-cultured with splenic EC [1]: decreased | effect on IL-8 enhanced colony output of MF CD34+ cells [2]: ameliorated
